Tests used:
[1] = target: T1, angiotensin-I-converting enzyme (ACE) (Oryctolagus cuniculus, UniProt P12822); test: ACE (Angiotensin I-Converting Enzyme) inhibition activity, Hip-His-Leu substrate, absorbance at 228 nm; format: biochemical, rabbit
T1 construct: tissue Sigma; host or cells: rabbit lung (acetone powder, borate buffer extract supernatant)
T1 sequence (P12822 34-1310): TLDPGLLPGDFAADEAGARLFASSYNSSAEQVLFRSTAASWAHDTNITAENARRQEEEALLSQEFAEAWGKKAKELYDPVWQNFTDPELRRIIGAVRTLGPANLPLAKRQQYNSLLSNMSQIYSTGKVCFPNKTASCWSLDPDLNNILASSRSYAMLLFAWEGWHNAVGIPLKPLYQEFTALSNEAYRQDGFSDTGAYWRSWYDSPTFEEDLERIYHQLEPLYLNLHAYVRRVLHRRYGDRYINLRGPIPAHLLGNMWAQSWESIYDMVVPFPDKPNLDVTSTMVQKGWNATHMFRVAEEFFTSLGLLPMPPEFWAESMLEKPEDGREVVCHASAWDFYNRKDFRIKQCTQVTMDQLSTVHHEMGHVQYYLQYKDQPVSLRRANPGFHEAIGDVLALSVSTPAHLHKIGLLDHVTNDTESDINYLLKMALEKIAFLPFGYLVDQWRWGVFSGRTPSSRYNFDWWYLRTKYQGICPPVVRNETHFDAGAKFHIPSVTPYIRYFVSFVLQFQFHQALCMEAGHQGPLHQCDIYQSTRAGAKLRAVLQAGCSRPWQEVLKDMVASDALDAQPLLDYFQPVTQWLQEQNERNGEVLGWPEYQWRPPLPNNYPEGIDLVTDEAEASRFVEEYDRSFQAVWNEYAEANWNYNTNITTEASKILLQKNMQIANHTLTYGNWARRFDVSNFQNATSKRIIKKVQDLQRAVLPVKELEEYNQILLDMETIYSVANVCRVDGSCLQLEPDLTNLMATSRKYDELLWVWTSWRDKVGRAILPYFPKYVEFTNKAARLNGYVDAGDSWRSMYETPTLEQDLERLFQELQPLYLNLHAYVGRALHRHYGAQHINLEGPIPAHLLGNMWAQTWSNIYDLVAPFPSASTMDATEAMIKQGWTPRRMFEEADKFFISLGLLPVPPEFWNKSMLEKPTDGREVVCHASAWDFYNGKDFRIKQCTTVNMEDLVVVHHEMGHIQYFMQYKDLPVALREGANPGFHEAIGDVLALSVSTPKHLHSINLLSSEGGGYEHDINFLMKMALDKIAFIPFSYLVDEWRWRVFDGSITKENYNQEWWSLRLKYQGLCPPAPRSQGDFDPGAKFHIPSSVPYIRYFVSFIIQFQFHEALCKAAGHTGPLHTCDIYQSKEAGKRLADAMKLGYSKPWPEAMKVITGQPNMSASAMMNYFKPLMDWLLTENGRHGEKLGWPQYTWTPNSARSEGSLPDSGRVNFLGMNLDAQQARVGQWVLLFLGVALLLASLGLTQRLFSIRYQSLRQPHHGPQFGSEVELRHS
Experimental: As shown in the results of Table 8, the hydrolyzed Salicornia salty sauces had very high functional polyphenol and flavonoid contents compared to the non-hydrolyzed salty sauce. Thus, as an indicator for antihypertensive activity, angiotensin-I-converting enzyme (ACE) inhibition activity was evaluated. As the test sample, each salty sauce, adjusted to a salt content of 14%, was added at a concentration of 1 to 5 μL/mL to the reaction solution, and then measured.
Angiotensin-II, produced by ACE, promotes an increase in blood pressure and secretion of antidiuretic hormone aldosterone, and suppresses the emission of water and sodium to thus increase blood circulation, thus causing hypertension. […] Specifically, 1 g of a rabbit lung acetone powder (Sigma Col) in 50 μL of the sample was mixed with 25 μL (2.5 unit) of an ACE supernatant dissolved in a 0.1 M sodium borate buffer containing 10 mL of 0.3 M NaCl, 50 μL of a 0.1 M sodium borate buffer (pH 8.3) containing 0.3 M NaCl, and 25 μL of a sample solution at various concentrations (0.25, 0.5 and 1.0 mg/mL), and then preincubated at 37° C. for 10 min. Further, 50 μL of a Hip-His-Leu substrate solution was added, and the resulting mixture was allowed to react at 37° C. for 30 min, after which the reaction was stopped by the addition of 100 μL of 1 N HCl. 1 mL of ethyl acetate was added, and the resulting reaction mixture was agitated in a vortex for 1 min and centrifuged at 3,000 g for 15 min, after which 0.8 mL of the separated ethyl acetate supernatant (extract) was recovered. The supernatant was warmed in a hood and thus completely volatilized, and was then dissolved in 1 mL of a sodium borate buffer under the same conditions, after which absorbance at 228 nm was measured and ACE inhibition activity was calculated.
During purification, the organic solvent fractions (at concentrations of 10, 25, 50 μg/mL) were measured for ACE inhibition activity in the same manner as in Example 3-2.

[2] = Solubility (physical and chemical properties of Compound A); format: physicochemical

IC50 [1] [µM]	inhibition at 10 µg/mL ([1]; at a concentration of 10 μg/mL) [%]	ACE inhibition activity, rank among compared samples/fractions ([1]; compared with the other sauces or with the other fractions of the same purification step)	Solubility ([2]; in methanol, ethanol, ethyl acetate, and chloroform)	Solubility ([2]; in water)	Compound
15.8	≥ 95	the greatest	Soluble	insoluble	COc1cc2c(=O)c(-c3ccccc3O)coc2cc1O [EDS-LH-7b, 7-hydroxy-3-(2′-hydroxyphenyl)-6-methoxy-4H-1-benzopyran-4-one]
93.3	–	–	–	–	O=c1cc(-c2ccc(O)c(O)c2)oc2cc(O)cc(O)c12 [Luteolin, reference compound]

Source: patent publication US20180319762A1, “5-deoxy-irilin B Having Angiotensin-I-converting enzyme Inhibition Activity derived from Salicornia SPP. and Composition Containing the Same” (PHYTO CORPORATION, priority 2015, published 2018)
